#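 Compound exposure: 48 hours, 5 concentrations, 96-well plates. GI50 is the concentration that inhibits growth by half.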 Activity calls are given as the source filed them. Cut-off read from the data, not from the text of the source: active = GI50 up to about 1.1 µM and inactive = higher.
# Experiments:
# Assay in all cases: growth of human tumour cells (NCI), 48 h
# [1] = tested on: SK-MEL-28
# [2] = tested on: CAKI-1
# [3] = tested on: BT-549
# [4] = tested on: HCC 2998
# [5] = tested on: NCI-H226
# [6] = tested on: TK-10
# [7] = tested on: NCI-H23
# [8] = tested on: NCI/ADR-RES
# [9] = tested on: ACHN
# [10] = tested on: CCRF-CEM
# [11] = tested on: RXF 393
# [12] = tested on: SN12C
# [13] = tested on: NCI-H522
# [14] = tested on: OVCAR-3
# [15] = tested on: KM12
# [16] = tested on: SNB-75
# [17] = tested on: MDA-MB-231
# [18] = tested on: M14
# [19] = tested on: EKVX
# [20] = tested on: SF-268
# [21] = tested on: PC-3
# [22] = tested on: Hs-578T
# [23] = tested on: K562
# [24] = tested on: HL-60
# [25] = tested on: U-251
# [26] = tested on: MCF7
# [27] = tested on: UACC-62
# [28] = tested on: DU-145
# [29] = tested on: T47D
# [30] = tested on: MDA-MB-435
# [31] = tested on: HOP-92
# [32] = tested on: IGROV-1
# [33] = tested on: MOLT-4
# [34] = tested on: SR
# [35] = tested on: A549
# [36] = tested on: LOX IMVI
# [37] = tested on: OVCAR-8
# [38] = tested on: COLO 205
# [39] = tested on: SNB-19
# [40] = tested on: HT-29
# [41] = tested on: HOP-62
# [42] = tested on: SF-295
# [43] = tested on: OVCAR-4
# [44] = tested on: SK-OV-3
# [45] = tested on: OVCAR-5
# [46] = tested on: MDA-N
# [47] = tested on: 786-0
# [48] = tested on: NCI-H460
# [49] = tested on: SW-620
# [50] = tested on: UO-31
# [51] = tested on: RPMI-8226
# [52] = tested on: Malme-3M
# [53] = tested on: HCT-116
# [54] = tested on: SK-MEL-5
# [55] = tested on: SK-MEL-2
# [56] = tested on: SF-539
# [57] = tested on: HCT-15
# [58] = tested on: UACC-257
smiles,measurement,setting,value
CC(C)(C)OC(=O)[N+](=N)C(=O)C1CCC(=O)N1C(=O)OCc1ccccc1 (stereo not drawn),GI50,[1],> 100 µM (inactive)
same,GI50,[2],> 100 µM (inactive)
same,GI50,[3],> 100 µM (inactive)
same,GI50,[4],> 100 µM (inactive)
same,GI50,[5],> 100 µM (inactive)
same,GI50,[6],> 100 µM (inactive)
same,GI50,[7],> 100 µM (inactive)
same,GI50,[8],> 100 µM (inactive)
same,GI50,[9],> 100 µM (inactive)
same,GI50,[10],> 100 µM (inactive)
same,GI50,[11],> 100 µM (inactive)
same,GI50,[12],> 100 µM (inactive)
same,GI50,[13],> 100 µM (inactive)
same,GI50,[14],> 100 µM (inactive)
same,GI50,[15],> 100 µM (inactive)
same,GI50,[16],> 100 µM (inactive)
same,GI50,[17],> 100 µM (inactive)
same,GI50,[18],> 100 µM (inactive)
same,GI50,[19],> 100 µM (inactive)
same,GI50,[20],> 100 µM (inactive)
same,GI50,[21],> 100 µM (inactive)
same,GI50,[22],> 100 µM (inactive)
same,GI50,[23],> 100 µM (inactive)
same,GI50,[24],> 100 µM (inactive)
same,GI50,[25],> 100 µM (inactive)
same,GI50,[26],> 100 µM (inactive)
same,GI50,[27],> 100 µM (inactive)
same,GI50,[28],> 100 µM (inactive)
same,GI50,[29],> 100 µM (inactive)
same,GI50,[30],86.7 µM (inactive)
same,GI50,[31],> 100 µM (inactive)
same,GI50,[32],> 100 µM (inactive)
same,GI50,[33],> 100 µM (inactive)
same,GI50,[34],> 100 µM (inactive)
same,GI50,[35],> 100 µM (inactive)
same,GI50,[36],> 100 µM (inactive)
same,GI50,[37],> 100 µM (inactive)
same,GI50,[38],> 100 µM (inactive)
same,GI50,[39],> 100 µM (inactive)
same,GI50,[40],> 100 µM (inactive)
same,GI50,[41],> 100 µM (inactive)
same,GI50,[42],> 100 µM (inactive)
same,GI50,[43],> 100 µM (inactive)
same,GI50,[44],> 100 µM (inactive)
same,GI50,[45],> 100 µM (inactive)
same,GI50,[46],> 100 µM (inactive)
same,GI50,[47],> 100 µM (inactive)
same,GI50,[48],> 100 µM (inactive)
same,GI50,[49],> 100 µM (inactive)
same,GI50,[50],> 100 µM (inactive)
same,GI50,[51],> 100 µM (inactive)
same,GI50,[52],> 100 µM (inactive)
same,GI50,[53],> 100 µM (inactive)
same,GI50,[54],> 100 µM (inactive)
CC(C)COP(=O)(OCC(C)C)C(NS(=O)(=O)c1ccccc1)(C(F)(F)F)C(F)(F)F,GI50,[1],13.6 µM (inactive)
same,GI50,[2],5.52 µM (inactive)
same,GI50,[3],4.03 µM (inactive)
same,GI50,[4],5.13 µM (inactive)
same,GI50,[5],16.9 µM (inactive)
same,GI50,[6],3.68 µM (inactive)
same,GI50,[7],3.81 µM (inactive)
same,GI50,[8],4.13 µM (inactive)
same,GI50,[9],2.99 µM (inactive)
same,GI50,[10],3.36 µM (inactive)
same,GI50,[11],3.96 µM (inactive)
same,GI50,[12],3.22 µM (inactive)
same,GI50,[13],4.05 µM (inactive)
same,GI50,[14],4.82 µM (inactive)
same,GI50,[15],3.93 µM (inactive)
same,GI50,[16],2.91 µM (inactive)
same,GI50,[17],2.04 µM (inactive)
same,GI50,[18],12.8 µM (inactive)
same,GI50,[19],4.91 µM (inactive)
same,GI50,[20],7.21 µM (inactive)
same,GI50,[21],3.68 µM (inactive)
same,GI50,[22],9.33 µM (inactive)
same,GI50,[55],3.4 µM (inactive)
same,GI50,[56],8.34 µM (inactive)
same,GI50,[23],4.8 µM (inactive)
same,GI50,[24],1.22 µM (inactive)
same,GI50,[25],3.77 µM (inactive)
same,GI50,[26],7.57 µM (inactive)
same,GI50,[27],4.81 µM (inactive)
same,GI50,[28],5.71 µM (inactive)
same,GI50,[29],3.38 µM (inactive)
same,GI50,[30],4.45 µM (inactive)
same,GI50,[31],2.2 µM (inactive)
same,GI50,[32],4.41 µM (inactive)
same,GI50,[33],1.41 µM (inactive)
same,GI50,[57],3.94 µM
same,GI50,[34],2.08 µM (inactive)
same,GI50,[35],3.82 µM (inactive)
same,GI50,[36],3.57 µM (inactive)
same,GI50,[37],6.46 µM (inactive)
same,GI50,[38],1.94 µM (inactive)
same,GI50,[39],10.2 µM (inactive)
same,GI50,[40],4.44 µM (inactive)
same,GI50,[41],11.3 µM (inactive)
same,GI50,[42],5.6 µM (inactive)
same,GI50,[43],3.4 µM (inactive)
same,GI50,[44],5.47 µM (inactive)
same,GI50,[45],14.2 µM (inactive)
same,GI50,[46],5.51 µM (inactive)
same,GI50,[47],7.53 µM (inactive)
same,GI50,[49],4.15 µM (inactive)
same,GI50,[50],2.22 µM (inactive)
same,GI50,[51],1.66 µM (inactive)
same,GI50,[52],11.9 µM (inactive)
same,GI50,[53],5.24 µM (inactive)
same,GI50,[58],4.24 µM (inactive)
same,GI50,[54],5.12 µM (inactive)
COc1ccc(C[C@H]2COC(=O)[C@@H]2Cc2cc(OC)c(OC)c(OC)c2)cc1OC,GI50,[1],98.2 µM (inactive)
same,GI50,[2],> 100 µM (inactive)
same,GI50,[3],32 µM (inactive)
same,GI50,[4],> 81.7 µM (inactive)
same,GI50,[5],> 34.4 µM (inactive)
same,GI50,[6],> 100 µM (inactive)
same,GI50,[7],99.3 µM (inactive)
same,GI50,[8],41.1 µM (inactive)
same,GI50,[9],> 100 µM (inactive)
same,GI50,[10],48.2 µM (inactive)
same,GI50,[11],> 54.5 µM (inactive)
same,GI50,[12],> 100 µM (inactive)
same,GI50,[13],> 68.7 µM (inactive)
same,GI50,[14],> 89.1 µM (inactive)
same,GI50,[15],> 70.3 µM (inactive)
same,GI50,[16],> 67.8 µM (inactive)
same,GI50,[17],> 87.3 µM (inactive)
same,GI50,[18],90.4 µM (inactive)
same,GI50,[19],> 65.8 µM (inactive)
same,GI50,[20],> 100 µM (inactive)
same,GI50,[21],42 µM (inactive)
same,GI50,[22],38 µM (inactive)
same,GI50,[55],> 88.3 µM (inactive)
same,GI50,[56],> 100 µM (inactive)
same,GI50,[23],77.8 µM (inactive)
same,GI50,[25],> 100 µM (inactive)
same,GI50,[26],> 64 µM (inactive)
same,GI50,[27],72.1 µM (inactive)
same,GI50,[28],> 100 µM (inactive)
same,GI50,[29],17.9 µM (inactive)
same,GI50,[30],> 81.1 µM (inactive)
same,GI50,[31],16 µM (inactive)
same,GI50,[32],> 94.6 µM (inactive)
same,GI50,[33],32.4 µM (inactive)
same,GI50,[57],> 100 µM
same,GI50,[34],5.9 µM (inactive)
same,GI50,[35],> 100 µM (inactive)
same,GI50,[36],> 74.1 µM (inactive)
same,GI50,[37],50.1 µM (inactive)
same,GI50,[38],> 100 µM (inactive)
same,GI50,[39],> 100 µM (inactive)
same,GI50,[40],> 100 µM (inactive)
same,GI50,[41],> 100 µM (inactive)
same,GI50,[42],> 100 µM (inactive)
same,GI50,[43],> 61.7 µM (inactive)
same,GI50,[44],> 100 µM (inactive)
same,GI50,[45],> 100 µM (inactive)
same,GI50,[46],78.7 µM (inactive)
same,GI50,[47],> 100 µM (inactive)
same,GI50,[48],> 100 µM (inactive)
same,GI50,[49],> 100 µM (inactive)
same,GI50,[50],43.6 µM (inactive)
same,GI50,[51],17.1 µM (inactive)
same,GI50,[52],> 100 µM (inactive)
same,GI50,[53],> 87.9 µM (inactive)
same,GI50,[58],> 75 µM (inactive)
same,GI50,[54],26.2 µM (inactive)

# Reference: ChEMBL document CHEMBL1201862, “PubChem BioAssay data set” (2004)
